From patent US10745365B2, “Luminogenic and fluorogenic compounds and methods to detect molecules or conditions” (Promega Corporation, priority 2005, dated 2020)
Each block holds one compound with its values, some of them ahead of it.

Columns and labels:
Type in all cases: biochemical
[1] = target: T1, QuantiLum Luciferase (firefly luciferase) (Photinus pyralis, UniProt P08659); experiment: Light emission of QuantiLum firefly luciferase with luciferin derivatives; details: for Light emission, Alone: Alone (no addition)
T1 construct: purchased Promega Corporation El 70
T1 sequence (P08659 whole entry): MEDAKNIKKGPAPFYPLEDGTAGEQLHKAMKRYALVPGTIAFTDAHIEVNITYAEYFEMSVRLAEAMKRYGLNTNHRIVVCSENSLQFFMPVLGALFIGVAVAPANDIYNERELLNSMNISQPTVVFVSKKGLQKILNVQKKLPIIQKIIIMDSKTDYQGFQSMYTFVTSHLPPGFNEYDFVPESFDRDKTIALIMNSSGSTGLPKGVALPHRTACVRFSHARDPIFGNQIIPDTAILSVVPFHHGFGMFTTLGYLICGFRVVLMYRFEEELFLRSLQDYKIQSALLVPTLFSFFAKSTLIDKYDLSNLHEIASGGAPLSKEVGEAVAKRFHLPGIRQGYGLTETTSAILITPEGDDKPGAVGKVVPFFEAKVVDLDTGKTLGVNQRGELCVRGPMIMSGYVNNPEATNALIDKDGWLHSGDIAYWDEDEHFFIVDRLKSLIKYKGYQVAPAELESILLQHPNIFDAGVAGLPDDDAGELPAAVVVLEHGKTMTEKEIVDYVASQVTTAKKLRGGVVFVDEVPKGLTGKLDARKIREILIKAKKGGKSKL
Protocol: Gel and HPLC stop solution. Solid EDTA (free acid) was placed in a beaker with water and the pH of the solution adjusted to pH 7.0. The solution was then adjusted in volume to produce a solution 400 mM in EDTA.
Enzyme stop solution. A solution was prepared containing 20 mM Bis Tris, pH 6.5, 2 mM EDTA and 1 mg/ml bovine serum albumin.
Reaction buffer (2×). A solution was made containing 100 mM HEPES buffer, pH 8.0; 10 mM MgCl2.
DTT stock. Solid DTT (dithiothreitol) was dissolved in water and then adjusted to pH 8.0 with solid sodium hydroxide. The solution was then adjusted in volume to produce a solution 1 M in DTT.
(§1) After producing the solutions in Table 37, the volume of all reactions was adjusted to 990 μl with water. […] While the light reading was being taken, a 10 μl sample of the reaction was diluted to 500 μl with enzyme stop solution (cooled on ice to 4° C.) mixed and placed on ice and a second sample of 90 μl of reaction was added to 10 μl of Gel/HPLC stop and the tube placed at −20° C. A timer was started with the start of the first reaction and the start times of the remaining reactions was noted. At 15, 30, 45 and 60 minutes, each reaction was sampled as above and the light produced in the luminometer tubes was measured. At 7 and 22 minutes, the light produced in the luminometer tubes was read, but the reactions were not sampled.
as §1, with “40,” for “37,”, “−200” for “−20°”
The DTT, Coenzyme A, and QuantiLum stock solutions are the same as those described herein.
This solution was diluted 1:1 with water to produce an enzyme solution labeled “No addition.” This solution was diluted 1:1 with 400 mM DTT, pH 8.0 to produce a solution labeled+DTT. This solution was diluted 1: 1 with 4 mM Coenzyme A to produce a solution labeled+Co A. Finally, this solution was diluted 1: 1 with a solution having both 4 mM Coenzyme A and 400 mM DTT to produce a solution labeled+Co A & DTT.
50 μl samples of these solutions were placed in the wells of luminometer microtiter plates, row A to row G, respectively. Row H of the plates was given 50 μl of water.
Reactions in these plates were initiated by addition of 50 μl of solution containing QuantiLum luciferase using a 12 channel micropipette. The solutions added to the rows were: columns 1, 5, and 9—no addition solution; columns 2, 6, and 10—+Co A solution; columns 3, 7, and 11—+DTT solution, and; columns 4, 8, and 12—+Co A and DTT solution. After addition of the enzyme solution to the first row on every plate, a timer was started. After addition of the enzyme solution to the last row on each plate, the plate was sealed and read on a Veritas luminometer.

[2] = target: T1, QuantiLum Luciferase (firefly luciferase); experiment: Residual active QuantiLum luciferase after reaction with derivative (Steady Glo)
Protocol: as §1
After all samples were taken, 50 μl of the sample diluted into enzyme stop solution was mixed with 50 μl of Steady Glo Luciferase Reagent (Promega) and the light produced measured after incubating at room temperature for 10 minutes. This measured the active luciferase in the initial reaction.
as §1, with “40,” for “37,”, “−200” for “−20°”

[3] = test system: thermostable luciferase (Luc 146-1H2); experiment: Light emission of thermostable luciferase with luciferin derivatives; details: 100 μM each
Protocol: This stock was used to produce enzyme stock solution having of 200 μg/ml enzyme solution in 1 mg/ml BSA, 200 mM HEPES buffer, pH 8.0, 20 mM MgCl2.
Solutions were made using a 1 M DTT solution, pH adjusted to 8.0, a 20 mM Coenzyme A solution in water (both described in examples above), a 100 mM ATP solution and water to create the following solutions: Sol′ A, 100 μM ATP; Sol′B, 100 μM ATP, 4 mM Coenzyme A; Sol′n C, 100 μM ATP, 400 mM DTT, and; Sol′n D, 100 μM ATP, 4 mM Coenzyme A and 400 mM DTT.
After assembly, the reactions were initiated by addition of 25 μl of the thermostable luciferase stock solution above and mixing the tube contents. A 50 μl sample was immediately removed and placed in a luminometer tube and the light read and the tube then replaced in a tube rack at room temperature. While the light reading was being taken, a 5 μl sample of the remaining reaction (which was kept at room temperature) was diluted into 495 μl of 50 mM BisTris, pH 6.5, 1 mg/ml BSA, 1 mM EDTA prechilled to 4° C. and the tube mixed and placed on ice. The light produced by the samples in the luminometer tubes were re-read at 20, 40, 60, 90 and 120 minutes post enzyme addition. Additional 5 μl samples were taken and diluted as above at 60 and 120 minutes post enzyme addition. Once all these readings and samples were taken, 50 μl of the diluted samples was mixed with 50 μl of Steady Glo in luminometer tubes, the tubes incubated 10 minutes […] then the light produced was read on a Turner TD 20/20 luminometer.

SMILES: COc1ccc2nc(C3=NC(C(=O)O)CS3)sc2c1 (stereo not shown) [Luc’in ME]
- Light reading at time 0 min ([1]; +Co A): 18.31
- Light reading at time 7 min ([1]; +Co A): 2.276
- Light reading at time 15 min ([1]; +Co A): 1.239
- Light reading at time 22 min ([1]; +Co A): 1.178
- Light reading at time 30 min ([1]; +Co A): 1.145
- Light reading at time 45 min ([1]; +Co A): 0.916
- Light reading at time 60 min ([1]; +Co A): 0.714
- Light reading at time 0 min ([1]; +DTT): 38.69
- Light reading at time 7 min ([1]; +DTT): 6.42
- Light reading at time 15 min ([1]; +DTT): 4.073
- Light reading at time 22 min ([1]; +DTT): 3.31
- Light reading at time 30 min ([1]; +DTT): 2.708
- Light reading at time 45 min ([1]; +DTT): 2.202
- Light reading at time 60 min ([1]; +DTT): 1.996
- Light reading at time 0 min ([1]; +EDTA): 1.067
- Light reading at time 7 min ([1]; +EDTA): 0.117
- Light reading at time 15 min ([1]; +EDTA): 0.058
- Light reading at time 22 min ([1]; +EDTA): 0.042
- Light reading at time 30 min ([1]; +EDTA): 0.024
- Light reading at time 45 min ([1]; +EDTA): 0.046
- Light reading at time 60 min ([1]; +EDTA): 0.012
- Light reading at time 0 min ([1]; No addition): 23.46
- Light reading at time 7 min ([1]; No addition): 3.144
- Light reading at time 15 min ([1]; No addition): 1.767
- Light reading at time 22 min ([1]; No addition): 1.317
- Light reading at time 30 min ([1]; No addition): 1.22
- Light reading at time 45 min ([1]; No addition): 0.982
- Light reading at time 60 min ([1]; No addition): 0.851
- Light reading at time 0 min ([1]; w/o ATP): 0
- Light reading at time 7 min ([1]; w/o ATP): 0.017
- Light reading at time 15 min ([1]; w/o ATP): 0.016
- Light reading at time 22 min ([1]; w/o ATP): 0
- Light reading at time 30 min ([1]; w/o ATP): 0
- Light reading at time 45 min ([1]; w/o ATP): 0.017
- Light reading at time 60 min ([1]; w/o ATP): 0.011
- Light reading from residual active enzyme at time 0 min ([2]; +Co A): 163.3
- Light reading from residual active enzyme at time 15 min ([2]; +Co A): 161.8
- Light reading from residual active enzyme at time 30 min ([2]; +Co A): 147.7
- Light reading from residual active enzyme at time 45 min ([2]; +Co A): 144.7
- Light reading from residual active enzyme at time 60 min ([2]; +Co A): 145.6
- Light reading from residual active enzyme at time 0 min ([2]; +DTT): 170
- Light reading from residual active enzyme at time 15 min ([2]; +DTT): 172.3
- Light reading from residual active enzyme at time 30 min ([2]; +DTT): 164.3
- Light reading from residual active enzyme at time 45 min ([2]; +DTT): 161.6
- Light reading from residual active enzyme at time 60 min ([2]; +DTT): 167.6
- Light reading from residual active enzyme at time 0 min ([2]; +EDTA): 150.5
- Light reading from residual active enzyme at time 15 min ([2]; +EDTA): 150
- Light reading from residual active enzyme at time 30 min ([2]; +EDTA): 152.1
- Light reading from residual active enzyme at time 45 min ([2]; +EDTA): 152.8
- Light reading from residual active enzyme at time 60 min ([2]; +EDTA): 151
- Light reading from residual active enzyme at time 0 min ([2]; No addition): 141.7
- Light reading from residual active enzyme at time 15 min ([2]; No addition): 35.4
- Light reading from residual active enzyme at time 30 min ([2]; No addition): 91.82
- Light reading from residual active enzyme at time 45 min ([2]; No addition): 85.72
- Light reading from residual active enzyme at time 60 min ([2]; No addition): 81.76
- Light reading from residual active enzyme at time 0 min ([2]; w/o ATP): 170
- Light reading from residual active enzyme at time 15 min ([2]; w/o ATP): 168.9
- Light reading from residual active enzyme at time 30 min ([2]; w/o ATP): 175.6
- Light reading from residual active enzyme at time 45 min ([2]; w/o ATP): 181.9
- Light reading from residual active enzyme at time 60 min ([2]; w/o ATP): 173.6

SMILES: O=C(O)[C@H]1CSC(c2nc3ccc(OCc4ccccc4)cc3s2)=N1 [luciferin-6-benzylether, reference compound]
- Light emission, Co A ([1]; Derivative Conc. 3.13 μM, +Co A): 55778
- Light emission, Co A + DTT ([1]; Derivative Conc. 3.13 μM): 80626
- Light emission, DTT ([1]; Derivative Conc. 3.13 μM, +DTT): 86445
- Light emission, Alone ([1]; Derivative Conc. 3.13 μM): 32994
- Light emission, Co A ([1]; Derivative Conc. 6.25 μM, +Co A): 58288
- Light emission, Co A + DTT ([1]; Derivative Conc. 6.25 μM): 105912
- Light emission, DTT ([1]; Derivative Conc. 6.25 μM, +DTT): 100044
- Light emission, Alone ([1]; Derivative Conc. 6.25 μM): 38838
- Light emission, Co A ([1]; Derivative Conc. 25 μM, +Co A): 53097
- Light emission, Co A + DTT ([1]; Derivative Conc. 25 μM): 90306
- Light emission, DTT ([1]; Derivative Conc. 25 μM, +DTT): 84034
- Light emission, Alone ([1]; Derivative Conc. 25 μM): 40093
- Light emission, Co A ([1]; Derivative Conc. 50 μM, +Co A): 38349
- Light emission, Co A + DTT ([1]; Derivative Conc. 50 μM): 98716
- Light emission, DTT ([1]; Derivative Conc. 50 μM, +DTT): 80001
- Light emission, Alone ([1]; Derivative Conc. 50 μM): 30609
- Light emission, Co A ([1]; Derivative Conc. 100 μM, +Co A): 33199
- Light emission, Co A + DTT ([1]; Derivative Conc. 100 μM): 64460
- Light emission, DTT ([1]; Derivative Conc. 100 μM, +DTT): 54592
- Light emission, Alone ([1]; Derivative Conc. 100 μM): 31581

- brightness relative to amino luciferin [3]: only about half as bright
SMILES: CN(C)c1ccc2nc(C3=NC(C(=O)O)CS3)sc2c1 (stereo not shown) [dimethyl amino luciferin]

SMILES: O=C(O)C1CSC(c2nc3ccc(NCCCO)cc3s2)=N1 (stereo not shown) [N-(3-hydroxypropyl)-aminoluciferin]
- luciferase substrate [1]: substrate for luciferase that provides sufficient light output for a luminescence reaction
